# Laboratory results reported in US20210047324A1 (Aptinyx Inc., priority 2018, published 2021).
# How the values were obtained:
# Format in all cases: biochemical
# NMDAR2D [1] = target: T1, NMDAR2D (Homo sapiens, UniProt O15399+Q05586); assay: NMDAR agonist assay, [3H]MK-801 binding, NMDAR2D expressing HEK cell membranes; conditions: 50 μM glutamate; read-out: NMDAR2D B: log EC50 (converted)
# T1 construct: expressed in transfected cells; host or cells: HEK cells (membrane extract)
# Protocol: (§1) Assays were conducted as described by Moskal et al., “GLYX-13: a monoclonal antibody-derived peptide that acts as an N-methyl-D-aspartate receptor modulator,” Neuropharmacology, 49, 1077-87, 2005. These studies were designed to determine if the test compounds act to facilitate NMDAR activation in NMDAR2A, NMDAR2B, NMDAR2C or NMDAR2D expressing HEK cell membranes as measured by increases in [^3H]MK-801 binding.
# (§2) In the assay, 300 μg of NMDAR expressing HEK cell membrane extract protein was preincubated for 15 minutes at […] in the presence of saturating concentrations of glutamate (50 μM) and varying concentrations of test compound (1×10^−15M-1×10^−7M), or 1 mM glycine. Following the addition of 0.3 μCi of [3H]MK-801 (22.5 Ci/mmol), reactions were again incubated for 15 minutes at 25° C. (nonequilibrium conditions). Bound and free [3H]MK-801 were separated via rapid filtration using a Brandel apparatus.
# (§3) In analyzing the data, the DPM (disintegrations per minute) of [3H]MK-801 remaining on the filter were measured for each concentration of test compound or for 1 mM glycine. The DPM values for each concentration of a ligand (N=2) were averaged. The baseline value was determined from the best fit curve of the DPM values modeled using the GraphPad program and the log(agonist) vs. response (three parameters) algorithm was then subtracted from all points in the dataset. The % maximal [^3H]MK-801 binding was then calculated relative to that of 1 mM glycine: all baseline subtracted DPM values were divided by the average value for 1 mM glycine. The EC50 and % maximal activity were then obtained from the best fit curve of the % maximal [3H]MK-801 binding data modelled using the GraphPad program and the log(agonist) vs. response (three parameters) algorithm.
# (§4) The tables below summarize the results for the wild type […] NMDAR2A, NMDAR2B, NMDAR2C, and NMDAR2D, and whether the compound is not an agonist (−), is an agonist (+), or is a strong agonist (++), where column A is based on the % maximal [3H]MK-801 binding relative to 1 mM glycine (−=0; <100%=+; and >100%=++); and column B is based on log EC50 values (0=−; ≥1×10^−9 M (e.g., −8)=+; and <1×10^−9 M (e.g., −10)=++).
# NMDAR2D [2] = target: T2, NMDAR2D (Homo sapiens, UniProt O15399); assay: as above; conditions: 50 μM glutamate; relative to 1 mM glycine
# T2 construct: expressed in transfected cells; host or cells: HEK cells (membrane extract)
# Protocol: as §1, §2, §3, §4
# NMDAR2A = target: T3, NMDAR2A (Homo sapiens, UniProt Q12879); assay: NMDAR agonist assay, [3H]MK-801 binding, NMDAR2A expressing HEK cell membranes; conditions: 50 μM glutamate
# T3 construct: expressed in transfected cells; host or cells: HEK cells (membrane extract)
# In short: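 Membranes from HEK cells (300 μg protein) preincubated 15 min with 50 μM glutamate plus compound (1×10^−15–1×10^−7 M) or 1 mM glycine, then with 0.3 μCi [3H]MK-801 for 15 min at 25° C. (nonequilibrium); filter-bound DPM, baseline-subtracted, expressed as % of 1 mM glycine; EC50 and % maximum from three-parameter fit.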
# T3 sequence (Q12879 23-1464, species assumed, other chains not shown): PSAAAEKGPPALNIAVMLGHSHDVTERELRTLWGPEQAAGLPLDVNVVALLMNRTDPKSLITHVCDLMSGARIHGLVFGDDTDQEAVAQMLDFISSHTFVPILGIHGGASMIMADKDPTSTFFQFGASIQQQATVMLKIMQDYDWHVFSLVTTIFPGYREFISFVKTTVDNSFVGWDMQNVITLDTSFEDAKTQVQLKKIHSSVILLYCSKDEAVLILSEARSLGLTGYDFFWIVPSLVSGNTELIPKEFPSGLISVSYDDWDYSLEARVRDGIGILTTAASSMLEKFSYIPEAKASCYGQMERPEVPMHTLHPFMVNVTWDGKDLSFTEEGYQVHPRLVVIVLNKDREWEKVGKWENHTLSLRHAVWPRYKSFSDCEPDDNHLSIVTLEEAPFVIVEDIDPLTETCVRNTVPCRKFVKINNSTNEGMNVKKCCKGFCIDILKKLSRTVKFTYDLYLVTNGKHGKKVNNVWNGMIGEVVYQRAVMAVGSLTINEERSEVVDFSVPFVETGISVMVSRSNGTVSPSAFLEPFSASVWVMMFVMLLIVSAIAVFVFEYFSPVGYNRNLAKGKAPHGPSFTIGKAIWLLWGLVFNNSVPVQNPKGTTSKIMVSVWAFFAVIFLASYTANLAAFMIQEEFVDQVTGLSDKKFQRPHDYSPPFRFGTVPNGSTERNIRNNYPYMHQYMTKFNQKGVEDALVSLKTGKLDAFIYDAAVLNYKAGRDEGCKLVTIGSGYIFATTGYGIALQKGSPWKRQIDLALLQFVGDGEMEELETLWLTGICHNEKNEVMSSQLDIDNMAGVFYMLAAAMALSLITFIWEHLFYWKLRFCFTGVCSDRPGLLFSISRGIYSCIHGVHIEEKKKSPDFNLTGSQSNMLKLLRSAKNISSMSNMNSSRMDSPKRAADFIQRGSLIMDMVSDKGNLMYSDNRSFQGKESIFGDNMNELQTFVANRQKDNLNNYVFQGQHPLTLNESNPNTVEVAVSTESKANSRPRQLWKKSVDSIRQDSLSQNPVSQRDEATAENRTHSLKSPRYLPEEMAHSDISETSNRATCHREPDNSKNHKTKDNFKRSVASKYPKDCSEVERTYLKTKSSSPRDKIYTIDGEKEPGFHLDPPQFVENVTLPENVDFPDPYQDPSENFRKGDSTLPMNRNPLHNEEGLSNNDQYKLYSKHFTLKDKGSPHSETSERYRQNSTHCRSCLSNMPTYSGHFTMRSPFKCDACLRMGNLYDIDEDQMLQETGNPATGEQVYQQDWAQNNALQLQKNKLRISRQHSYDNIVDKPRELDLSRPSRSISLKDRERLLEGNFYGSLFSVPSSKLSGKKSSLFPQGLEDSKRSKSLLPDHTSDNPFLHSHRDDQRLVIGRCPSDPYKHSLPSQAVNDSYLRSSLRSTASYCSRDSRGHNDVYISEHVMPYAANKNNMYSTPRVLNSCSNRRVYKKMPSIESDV
# T1 sequence (O15399 28-1336, species assumed, other chains not shown): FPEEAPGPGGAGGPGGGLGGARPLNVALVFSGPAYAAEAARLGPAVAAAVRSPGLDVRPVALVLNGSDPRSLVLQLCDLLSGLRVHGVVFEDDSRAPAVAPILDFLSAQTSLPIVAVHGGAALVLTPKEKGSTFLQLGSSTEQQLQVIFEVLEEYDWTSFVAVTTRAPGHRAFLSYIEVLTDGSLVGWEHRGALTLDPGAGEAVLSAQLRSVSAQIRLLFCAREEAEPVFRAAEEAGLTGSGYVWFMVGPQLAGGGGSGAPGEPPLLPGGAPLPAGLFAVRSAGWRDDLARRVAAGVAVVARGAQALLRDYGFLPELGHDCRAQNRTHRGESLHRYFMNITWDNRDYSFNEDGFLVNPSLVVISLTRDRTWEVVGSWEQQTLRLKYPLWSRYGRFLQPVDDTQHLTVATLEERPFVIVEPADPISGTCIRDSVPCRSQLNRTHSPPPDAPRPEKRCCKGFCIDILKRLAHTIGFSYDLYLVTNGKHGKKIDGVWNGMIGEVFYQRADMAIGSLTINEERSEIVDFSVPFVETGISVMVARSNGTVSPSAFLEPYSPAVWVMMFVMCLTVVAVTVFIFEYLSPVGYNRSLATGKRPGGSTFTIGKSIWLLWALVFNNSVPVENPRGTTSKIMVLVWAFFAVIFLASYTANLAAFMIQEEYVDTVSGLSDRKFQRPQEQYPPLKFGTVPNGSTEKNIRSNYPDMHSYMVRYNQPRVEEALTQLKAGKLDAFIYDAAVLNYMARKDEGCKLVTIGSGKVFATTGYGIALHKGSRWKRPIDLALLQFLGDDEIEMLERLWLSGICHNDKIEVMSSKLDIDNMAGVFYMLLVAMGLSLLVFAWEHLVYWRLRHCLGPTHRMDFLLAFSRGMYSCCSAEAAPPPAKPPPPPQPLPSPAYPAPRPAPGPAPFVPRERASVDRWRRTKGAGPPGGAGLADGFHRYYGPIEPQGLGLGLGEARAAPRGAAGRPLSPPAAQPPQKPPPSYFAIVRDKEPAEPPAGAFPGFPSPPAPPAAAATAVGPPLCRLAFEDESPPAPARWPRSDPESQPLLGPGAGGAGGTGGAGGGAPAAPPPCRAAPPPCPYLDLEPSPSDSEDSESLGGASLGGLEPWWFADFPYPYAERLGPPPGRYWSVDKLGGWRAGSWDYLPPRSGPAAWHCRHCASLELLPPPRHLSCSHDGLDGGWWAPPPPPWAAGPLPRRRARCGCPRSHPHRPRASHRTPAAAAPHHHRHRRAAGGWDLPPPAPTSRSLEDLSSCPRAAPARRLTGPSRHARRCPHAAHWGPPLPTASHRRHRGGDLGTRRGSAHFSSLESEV
# T2 sequence (O15399 28-1336, species assumed, other chains not shown): as above
compound,measurement,setting,value
"O=C1NCC=CC[C@]12CCCN2 [GA, (R)-1,7-diazaspiro[4.6]undec-9-en-6-one]",EC50,NMDAR2D [1],< 1 nM
same,NMDAR2D A: % maximal [3H]MK-801 binding relative to 1 mM glycine,NMDAR2D [2],+ (<100%=+)
same,EC50,NMDAR2A; read-out: NMDAR2A B: log EC50 (converted),≥ 1 nM
same,Emax,"NMDAR2A; 0.25 h, relative to 1 mM glycine, read-out: NMDAR2A A: % maximal [3H]MK-801 binding relative to 1 mM glycine",< 100%
